Consider five compounds from paper PMC9551036, “A selective and orally bioavailable VHL-recruiting PROTAC achieves SMARCA2 degradation in vivo” (Nature Communications, 2022).

Each structure is given as a SMILES string. Several values for one entry are separate records, joined by “and”; a condition that tells them apart may be missing. Equal values may be shown once. Read-outs that look alike come from different tables or passages of the source.

For test [1], the target named is T1, VCB: PROTAC: SMARCA2^BD ternary complex (Homo sapiens, UniProt P51531).
T1 construct: P51531-2, residues 1373-1493 with additional N-terminal SM residues; GST (TEV site) (N); His6 (TEV site) (N, cleaved yes); made in house; host or cells: SMARCA2^BD: Escherichia coli BL21(DE3)
The test can be described thus: TR-FRET ternary complex affinity and cooperativity, SMARCA2. It is filed as binding. In general terms: Time-resolved FRET reads energy transfer from a long-lived donor to a nearby acceptor.

Test [2] concerns the target T2, (Homo sapiens, UniProt P51532).
T2 construct: P51532, residues 1448–1569 with additional N-terminal SM residues; GST (TEV site) (N); His6 (TEV site) (N, cleaved yes); made in house; host or cells: SMARCA4^BD: Escherichia coli BL21(DE3)
The test can be described thus: TR-FRET ternary complex affinity and cooperativity, SMARCA4. It is filed as binding.

Another test concerns NCI-H1568 cells. The test can be described thus: Cell viability assay (CellTiter Glo) in NCI-H1568. The test is classed as cell-based, human. The following applies: for EC50: read-out: EC50 cell proliferation (CellTiter Glo); for IC50: NCI-H1568, (18h), CellTiter Glo, individual replicates, read-out: NCI-H1568 (18h) CTG. The protocol:
500–2000 cells were seeded in white, clear bottom 96-well plates (Corning or Perkin Elmer) in 180–200 µl medium per well. The next day, compounds were added using a digital dispenser and a T0 sample was measured for reference. […], and viability (luminescence) was measured using CellTiter Glo or CellTiter Glo 2.0 (Promega) according to manufacturer’s instructions after equilibrating cells and reagents at room temperature and 10–20 min incubation time while shaking.
Background: In ATP-based viability assays light output follows the ATP content of the culture.

The next test deals with T3, PBRM1 BD (Homo sapiens, UniProt Q86U86).
T3 construct: GST (TEV site) (N); made in house; host or cells: Escherichia coli BL21(DE3)
The test can be described thus: TR-FRET binary and ternary (PROTAC + VCB) affinity, PBRM1 bromodomain. It is filed as binding. The following applies: individual replicates.

In another test the target is SMARCA2 (Homo sapiens, UniProt P51531). Briefly: Imaging-based SMARCA2 protein assay in RKO cells. The test is classed as cell-based. Set-up: endogenous in cells; host or cells: RKO, NCI-H1568, A549, HCT116, LU99, HCC-364, HCT-15, HCC4006, SK-N-AS. The following applies: individual replicates. The protocol: 1250 cells per well in 60 µl medium were plated in flat bottom, poly-lysin coated 384-well plates (CellCarrier Ultra, Perkin Elmer). The next day, test compounds (10 µl of serial dilutions) and DMSO controls were diluted in DMEM medium such that the final DMSO content was <1% or were added using an ultrasound dispensing system. 4 wells were reserved for a background measurement. […] After aspirating the fixing solution, the cells were washed once with 25 µl PBS. 25 µl of blocking buffer (10% goat serum in PBS) was added and cells were incubated for 30 min, then washed once with PBS. […] Cells were again washed once with PBS. […] The cell layer was then washed once with 25 µl PBS, the wells were filled with 25 µl PBS and the plates were sealed with an adhesive sheet. They were then imaged on the Opera Phoenix (mean intensity in the nucleus). […] EC50 values were computed using a 4-parametric logistic model.

Setting [3] is: TR-FRET competition for SMARCA2BD, without VCB, mean ± SD, read-out: TR-FRET SMARCA2BD EC50.
[4] abbreviates: binary, PROTAC alone, individual replicates, read-out: SMARCA2 BD EC50.
Setting [5] is: binary, PROTAC alone, individual replicates, read-out: SMARCA4 BD EC50.
[6] abbreviates: PROTAC + VCB, read-out: Ternary PBRM1 BD EC50 (PROTAC + VCB).
Where [7] appears, read: binary, PROTAC alone, read-out: PBRM1 EC50.
Where [8] appears, read: 4h, read-out: RKO (4h) SMARCA2 DC50.
[9] abbreviates: 18h, read-out: RKO (18h) SMARCA2 DC50.
The mark [10] stands for this setting: TR-FRET competition for SMARCA4BD, without VCB, mean ± SD, read-out: TR-FRET SMARCA4BD EC50.

SMARCA2, sequence (P51531 whole entry): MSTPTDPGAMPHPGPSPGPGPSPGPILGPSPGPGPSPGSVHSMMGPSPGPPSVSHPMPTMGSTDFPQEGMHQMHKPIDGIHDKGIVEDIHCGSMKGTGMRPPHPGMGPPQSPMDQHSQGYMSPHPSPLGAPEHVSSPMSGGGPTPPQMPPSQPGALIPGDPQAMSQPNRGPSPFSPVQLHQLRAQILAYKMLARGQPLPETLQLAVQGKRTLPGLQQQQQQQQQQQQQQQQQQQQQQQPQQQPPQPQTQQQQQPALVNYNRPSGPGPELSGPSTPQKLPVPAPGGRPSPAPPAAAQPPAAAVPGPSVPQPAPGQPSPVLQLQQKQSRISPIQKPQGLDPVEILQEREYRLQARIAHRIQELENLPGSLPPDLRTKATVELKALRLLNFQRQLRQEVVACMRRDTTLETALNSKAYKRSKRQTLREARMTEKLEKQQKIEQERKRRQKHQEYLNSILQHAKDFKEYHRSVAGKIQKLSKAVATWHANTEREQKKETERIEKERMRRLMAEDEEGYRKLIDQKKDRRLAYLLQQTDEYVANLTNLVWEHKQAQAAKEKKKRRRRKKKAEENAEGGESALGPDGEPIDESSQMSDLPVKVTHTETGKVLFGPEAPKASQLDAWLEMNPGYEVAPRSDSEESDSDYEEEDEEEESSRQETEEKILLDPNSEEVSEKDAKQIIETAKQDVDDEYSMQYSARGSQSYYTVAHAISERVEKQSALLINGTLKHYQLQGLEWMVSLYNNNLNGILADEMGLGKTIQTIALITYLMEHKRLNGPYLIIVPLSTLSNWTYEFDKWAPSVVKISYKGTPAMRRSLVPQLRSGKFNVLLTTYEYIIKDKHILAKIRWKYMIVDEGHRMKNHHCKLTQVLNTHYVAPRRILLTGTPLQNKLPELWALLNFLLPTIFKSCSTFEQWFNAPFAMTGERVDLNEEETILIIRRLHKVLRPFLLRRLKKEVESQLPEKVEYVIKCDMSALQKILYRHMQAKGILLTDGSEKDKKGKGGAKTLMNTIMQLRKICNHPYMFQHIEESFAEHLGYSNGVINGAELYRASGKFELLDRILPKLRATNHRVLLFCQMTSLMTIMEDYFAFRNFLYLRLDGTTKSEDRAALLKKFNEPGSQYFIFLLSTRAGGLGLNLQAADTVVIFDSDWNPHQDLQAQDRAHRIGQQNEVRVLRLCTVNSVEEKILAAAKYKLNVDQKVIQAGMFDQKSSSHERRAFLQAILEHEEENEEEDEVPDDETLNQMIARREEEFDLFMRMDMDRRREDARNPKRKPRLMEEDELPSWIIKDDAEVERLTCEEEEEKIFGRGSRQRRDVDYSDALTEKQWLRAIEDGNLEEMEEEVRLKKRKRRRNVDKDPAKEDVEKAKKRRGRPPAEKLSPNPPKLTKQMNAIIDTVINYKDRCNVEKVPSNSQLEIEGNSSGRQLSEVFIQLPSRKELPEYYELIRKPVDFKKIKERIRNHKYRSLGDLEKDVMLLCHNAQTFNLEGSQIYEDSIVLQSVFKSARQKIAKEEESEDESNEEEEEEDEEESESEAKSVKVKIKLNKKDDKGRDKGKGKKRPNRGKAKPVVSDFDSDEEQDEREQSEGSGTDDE
T2 sequence (P51532 1448-1569): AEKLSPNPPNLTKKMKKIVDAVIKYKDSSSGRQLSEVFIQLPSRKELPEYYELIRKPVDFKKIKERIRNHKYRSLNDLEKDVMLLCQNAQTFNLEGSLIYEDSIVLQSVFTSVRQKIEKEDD
T1 sequence (P51531 with tags, fused parts or gaps isoform P51531-2): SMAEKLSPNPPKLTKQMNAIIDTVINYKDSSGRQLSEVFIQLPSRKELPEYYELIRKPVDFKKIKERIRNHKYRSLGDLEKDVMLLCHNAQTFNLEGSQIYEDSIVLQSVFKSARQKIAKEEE

For `Cc1ncsc1-c1ccc([C@H](CCC(C)(C)CCN2CCC(c3ccc4c(c3)n(C3CCCC3)c3nc(=O)c5c(Br)cccc5n43)CC2)NC(=O)[C@@H]2C[C@@H](O)CN2C(=O)[C@@H](NC(=O)C2(F)CC2)C(C)(C)C)cc1` [compound 30], the EC50 is 260 ± 100 nM in test [1] (setting [3]); 213 nM and 176 nM and > 400 nM and 400 nM and 304 nM in test [1] (setting [4]); > 2000 nM and 564 nM and > 400 nM in test [2] (setting [5]); 12 ± 6 nM in the test on NCI-H1568 cells (NCI-H1568 ([…]), mean ± SD); 4.23 nM and 6.19 nM and 8.06 nM at PBRM1 BD (setting [6]); 111 nM and 105 nM and 192 nM at PBRM1 BD (setting [7]). Moreover, the IC50 in the test with NCI-H1568 cells is 19.7 nM and 17.5 nM and 8.43 nM and 7.53 nM. Also, the DC50 is 6.74 nM and 9.27 nM on SMARCA2 (setting [8]); 2.02 nM and 3.96 nM and 3.27 nM and 3.57 nM on SMARCA2 (setting [9]).
For the compound `O=c1nc2n(C3CCCC3)c3ccccc3n2c2cccc(Br)c12` [compound 1], the EC50 was 425 ± 11 nM in test [1] (setting [3]); 413 nM and 429 nM and 435 nM in test [1] (setting [4]); 857 ± 64 nM in test [2] (setting [10]); 800 nM and 849 nM and 927 nM in test [2] (setting [5]); 1100 nM in the test with NCI-H1568 cells (Homo sapiens, NCI-H1568, […]); 129 nM and 124 nM and 140 nM on PBRM1 BD (setting [6]). Further, the EC50 at PBRM1 BD (setting [7]) is 124 nM and 116 nM and 167 nM. The DC50 on SMARCA2 (setting [8]) and at SMARCA2 (setting [9]) was more than 25000 nM throughout.
Turning to `Cc1ncsc1-c1ccc([C@H](COC(C)CN2CCC(c3ccc4c(c3)n(C3CCCC3)c3nc(=O)c5c(Br)cccc5n43)CC2)NC(=O)[C@@H]2C[C@@H](O)CN2C(=O)[C@@H](NC(=O)C2(F)CC2)C(C)(C)C)cc1` (stereo partly shown) [compound 9], the EC50 in test [1] (setting [3]) is 143 ± 27 nM; in test [1] (setting [4]), 132 nM and 149 nM and 140 nM (2×) and 172 nM and 134 nM and 115 nM and 202 nM and 128 nM; in test [2] (setting [10]) it was 265 ± 34 nM; in test [2] (setting [5]) it was 228 nM and 295 nM and 276 nM; with NCI-H1568 cells (Homo sapiens, NCI-H1568, […]) it was 45 ± 51 nM; at PBRM1 BD (setting [6]) it was 6.04 nM and 5.66 nM and 5.49 nM and 5.75 nM and 6.81 nM and 13.2 nM and 4.82 nM. The EC50 on PBRM1 BD (setting [7]) was 31.7 nM and 35 nM and 40.8 nM and 29.8 nM and 31 nM. Moreover, the IC50 in the test on NCI-H1568 cells is 48.2 nM and 116 nM and 16.6 nM. The DC50 at SMARCA2 (setting [8]) was 11.4 nM and 10.4 nM and 9.77 nM and 18.8 nM; at SMARCA2 (setting [9]), 4.73 nM and 4.97 nM and 4.9 nM and 3.53 nM.
With `Cc1ncsc1-c1ccc(CNC(=O)[C@@H]2C[C@H](O)CN2C(=O)[C@@H](NC(=O)C2(F)CC2)C(C)(C)C)c(OCCN2CCC(c3ccc4c(c3)n(C3CCCC3)c3nc(=O)c5c(Br)cccc5n43)CC2)c1` [compound 19], the EC50 in test [1] (setting [3]) was 85 ± 7 nM; in test [1] (setting [4]), 79.1 nM and 82 nM and 94.2 nM; in test [2] (setting [10]), 158 ± 27 nM; in test [2] (setting [5]), 194 nM and 151 nM and 129 nM; with NCI-H1568 cells (NCI-H1568 ([…]), mean ± SD), 564 ± 384 nM; on PBRM1 BD (setting [6]), 38.5 nM and 41 nM and 40.2 nM. Also, the EC50 at PBRM1 BD (setting [7]) is 35.2 nM and 39.5 nM and 40.1 nM. Also, the IC50 in the test on NCI-H1568 cells is 595 nM and 1050 nM and 287 nM. The DC50 on SMARCA2 (setting [8]) and at SMARCA2 (setting [9]) was more than 25000 nM in each case.
Regarding `CN1CCN(c2nc(=O)c3ccccc3o2)CC1` [compound 14], the EC50 is more than 10000 nM in test [1] (setting [4]); more than 10000 nM in test [2] (setting [5]); more than 10000 nM with NCI-H1568 cells (NCI-H1568 ([…]), mean ± SD); more than 10000 nM on PBRM1 BD (setting [6]); more than 10000 nM at PBRM1 BD (setting [7]). Also, in the test on NCI-H1568 cells, the IC50 is more than 10000 nM. Besides, the DC50 at SMARCA2 (setting [8]) and on SMARCA2 (setting [9]) was more than 25000 nM throughout.
